In patent publication US7060733B2, “Methods for treating pancreatitis with curcumin compounds and inhibitors of reactive oxygen species” (The Regents of the University of California, priority 2002, dated 2006):
Entries after “also recorded” stand apart in the source; their conditions may differ.

Experiments:
trypsin = test: Trypsin activation assay in pancreatic tissue homogenates; assay type: in vivo, rat; details: for inhibition of intrapancreatic trypsin activation / active trypsin versus pancreatitis without curcumin: rat
Method: Pancreatic tissue homogenates were prepared by methods known in the art. See Gukovskaya A S, et al. (2002); Gukovsky I, et al. (1998); Sandoval D, et al. (1996) Gastroenterology 111:1081–1091; and Vaquero E, et al. (2001), which are herein incorporated by reference. Active trypsin was measured in the pancreatic tissue homogenates by using a specific substrate, Boc-GLn-Ala-Arg-A MC (Bachem, Torrance, Calif.). See Kawabata S. et al. (1988) Eur. J. Biochem. 172:17–25, which is herein incorporated by reference. Cleavage of the substrate by trypsin releases 7-amino-4-methylcoumarin (AMC), which emits fluorescence at 440 nm with excitation at 380 nm. Trypsin activity in each sample was determined using a standard curve for purified trypsin.
Specifically, about ⅓ of rat pancreas was homogenized in 2 ml ice-cold buffer A (5 mM MES, pH 6.5; 1 mM MgSO4, 250 mM sucrose). Then 2 ml of buffer B (50 mM Tris, pH 8.0; 150 mM NaCl, 1 mM CaCl2, 0.1 mg/ml BSA) was mixed with 25 μl of the homogenate and kept on ice. Then 2 μl of 20 mM substrate solution (20 mM Boc-Gln-Ala-Arg-AMC.HCl in DMSO) was added to start the reaction. The sample was mixed well and incubated at 37° C. The reaction product was measured with a spectrofluorimeter for 20 minutes at ex=380 nm; em=440 nm.

[1] = test system: IL-6, TNF-α, KC and iNOS mRNA; test: RT-PCR for pancreatic mRNA expression of inflammatory molecules; assay type: in vivo; details: rat
Method: To determine whether the effects of curcumin on NF-κB and AP-1 activation translated into changes in the expression of inflammatory molecules, the effect of curcumin on pancreatic mRNA expression of several cytokines and other inflammatory molecules were measured by methods known in the art. See Blinman T A, et al. (2000); Gukovskaya A S, et al. (1999); Gukovsky I, et al. (1998); Pandol S J, et al. (1999); Vaquero E, et al. (2001); and Zaninovic V, et al. (2000). Briefly, total RNA was obtained from pancreatic tissue with TRI reagent (Molecular Research Center, Cincinnati, Ohio) and its quality was verified by ethidium bromide staining of rRNA bands on a denaturing agarose gel. RNA was reverse-transcribed with the SuperScript II preamplification kit (GIBCO-BRL, Rockville, Md.) and subjected to PCR with the rat gene specific, intron-spanning primers set forth in Target sequences were amplified at 56° C. using the same amount of cDNA for all primer sets. The RT-PCR products were all of expected size, and their identity was confirmed by direct sequencing. Negative controls were performed by omitting the RT step or cDNA template from the PCR amplification. The cycle number was adjusted between 22 (for the housekeeping ARP gene) and 36 cycles (for iNOS) in order to yield visible products within the linear amplification range. […]

isolated acinar cells = test: Amylase secretion in isolated acinar cells; assay type: cell-based, rat; details: 100 μM curcumin, versus absence
Method: The effect of curcumin on amylase secretion in isolated acinar cells was assayed. Specifically, acinar cells were isolated using a collagenase digestion technique known in the art. Animals were sacrificed with CO2. The pancreas was removed and trimmed from mesentary and fat. […]
Amylase secretion was measured. […] Amylase activity was measured in each supernatant sample as well as the cellular sample and values for amylase release were calculated as the percentage of amylase activity in the cells at the beginning of the experiment that was release into the media during the experiment.
The absorbance was read with a spectrophotometer at 405 nm at 37° C. and the amylase activity in the samples was calculated by subtracting initial from the final readings. […]

NF-κB and AP-1 = details: various cell types and tissues; cited from earlier work
p38 MAP kinase = p38 MAP kinase (Homo sapiens, UniProt Q16539); details: various cell types and tissues; cited from earlier work
Chain of p38 MAP kinase (Q16539 whole entry): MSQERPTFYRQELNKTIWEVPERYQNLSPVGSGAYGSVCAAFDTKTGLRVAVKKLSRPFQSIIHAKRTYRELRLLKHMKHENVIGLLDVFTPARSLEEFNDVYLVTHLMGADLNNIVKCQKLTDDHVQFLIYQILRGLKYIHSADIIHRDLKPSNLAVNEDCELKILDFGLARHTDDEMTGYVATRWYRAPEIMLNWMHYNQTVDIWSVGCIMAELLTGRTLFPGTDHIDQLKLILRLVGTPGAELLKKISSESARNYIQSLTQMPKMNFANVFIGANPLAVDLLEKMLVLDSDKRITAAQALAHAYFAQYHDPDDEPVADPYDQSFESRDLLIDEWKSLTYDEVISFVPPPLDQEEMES

COc1cc(/C=C/C(=O)CC(=O)/C=C/c2ccc(O)c(OC)c2)ccc1O [curcumin]
inhibition of intrapancreatic trypsin activation (trypsin; EtOH+CCK model): greater than 50%
inhibition of intrapancreatic trypsin activation (trypsin; cerulein model): greater than 70%
active trypsin versus pancreatitis without curcumin (trypsin; cerulein pancreatitis): significantly lower; also recorded: significantly inhibited
basal level of active pancreatic trypsin (trypsin; ethanol-fed rats, EtOH+CCK model, basal): unaffected
active trypsin versus pancreatitis without curcumin (trypsin; ethanol/CCK pancreatitis): significantly lower; also recorded: significantly inhibited
pancreatic expression of IL-6, TNF-α, KC and iNOS ([1]; cerulein pancreatitis): markedly inhibited; also recorded: attenuated
pancreatic expression of IL-6, TNF-α, KC and iNOS ([1]; ethanol/CCK pancreatitis): markedly inhibited; also recorded: attenuated
amylase release elicited by maximal (1 nM) and supramaximal (100 nM) CCK-8 (isolated acinar cells): the same
activation of NF-κB and AP-1 (NF-κB and AP-1): inhibits
effect on p38 MAP kinase (p38 MAP kinase): no effect
